Results reported in PubChem BioAssay AID588764 (Broad Institute, 2011).
Records with an inconclusive call do not appear. The source made the active and inactive calls. The rule behind the calls is not given here.

What follows are compounds tested against Histone acetyltransferase RTT109 (Candida albicans (strain SC5314 / ATCC MYA-2876)) (UniProt Q5AAJ8) (assay: Rtt109/Vps75 acetyltransferase inhibitor potency, dose response, biochemical, cherry-picked hits, plate reader (AID 588764)). Details: Rtt109/Vps75 HAT activity.
Chain of Histone acetyltransferase RTT109 (Candida albicans (strain SC5314 / ATCC MYA-2876)) (Q5AAJ8 whole entry, looked up): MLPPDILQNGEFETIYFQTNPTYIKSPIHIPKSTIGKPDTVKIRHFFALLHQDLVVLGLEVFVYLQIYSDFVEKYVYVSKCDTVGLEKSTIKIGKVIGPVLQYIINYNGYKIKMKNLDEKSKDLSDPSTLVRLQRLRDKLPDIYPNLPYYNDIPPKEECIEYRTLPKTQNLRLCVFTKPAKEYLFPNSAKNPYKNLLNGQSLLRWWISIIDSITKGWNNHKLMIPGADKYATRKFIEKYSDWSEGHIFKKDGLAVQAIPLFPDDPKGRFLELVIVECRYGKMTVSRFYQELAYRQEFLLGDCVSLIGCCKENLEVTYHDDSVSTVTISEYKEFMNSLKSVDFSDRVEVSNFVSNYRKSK

| SMILES | AC50 |
| --- | --- |
| CS(=O)(=O)c1ncc(Cl)c(C(=O)Nc2ccc(N3CCOCC3)cc2)n1 | 8.27 µM |
| C[C@]12CC[C@@H]3c4ccc(O)c(O)c4CC[C@H]3[C@@H]1CC[C@@H]2O | 10 µM |
| C=CCNc1nnc(SC2CC(=O)N(c3ccc(OC)cc3)C2=O)s1 (centres undefined) | 13.4 µM |
| COC(=O)/C=C\C(=O)Nc1cccc([N+](=O)[O-])c1 | 5.62 µM |
| Cc1ccccc1N1C(S)=C(C#N)C(=O)NC1c1cccs1 (centres undefined) | 17.7 µM |
| CCCNC(=O)Cn1sc2nc(C)cc(C)c2c1=O | 2.32 µM |
| CCOC(=O)C(=Cc1cc(=O)c(OC)co1)C(=O)OCC | 10.7 µM |
| N#CC1=C(S)N(c2ccccc2)C(c2ccc(-c3cccc(Cl)c3)o2)NC1=O (centres undefined) | 11.9 µM |
| O=S(=O)(NN1CCOCC1)c1ccc(Br)cc1 | 11.6 µM |
| CCOc1ccc(N2C(=O)C(Cl)=C(N3CCOCC3)C2=O)cc1 | 20.3 µM |
| O=c1c2cc(F)ccc2sn1-c1ccccc1 | 1.81 µM |
| O=C(CCc1ccc(S(=O)(=O)N2CCOCC2)cc1)N/N=C/c1ccc(O)c(O)c1O | 9.29 µM |
| Cc1ccc(NC(=O)Cn2sc3nc(C)cc(C)c3c2=O)c(Cl)c1 | 0.831 µM |
| Nc1nc2ccc(S(=O)(=O)N3CCCCC3)cc2s1 | 19.5 µM |
| Cc1ccc(NC(=O)c2cc(N3C(=O)C=CC3=O)ccc2N2CCOCC2)cc1 | 7.03 µM |
| CC1(C)CC2(CC(c3ccccc3F)c3ccc(O)c(O)c3O2)NC(=S)N1 (centres undefined) | 19.7 µM |
| Cc1nnc(SC2CC(=O)N(c3ccccc3)C2=O)s1 (centres undefined) | 17.5 µM |
| O=C(NCc1ccccc1)c1nc(S(=O)(=O)Cc2ccccc2)ncc1Cl | 15 µM |
| O=C1C(Cl)=C(N2CCOCC2)C(=O)N1c1ccccc1Cl | 14.8 µM |

Same assay, conditions: Rtt109/Vps75 HAT activity, at 19.5 µM (top of the series)

| SMILES | activity change, negative = inhibition |
| --- | --- |
| C#CCOCCOCCOCCNc1nc(N2CCN(C(=O)C([C@@H](C)O)n3cc([C@@H](N)CCCCN)nn3)CC2)nc(N2CCN(C(=O)[C@H](CCCCN)n3cc(CN)nn3)CC2)n1 (some centres undefined) | inactive |
| O=C(NCCCN1CCN(c2ccccc2F)CC1)C1CCC(=O)N1C1CCCCC1 (centres undefined) | inactive |
| C[C@H]1CC[C@H]2NCCN[C@H]2C1 | inactive |
| O=C(CN1CCCc2ccccc21)NCc1ccc2c(c1)OCO2 | inactive |
| CCOC(=O)C1CCN(c2ccc([N+](=O)[O-])c(C(C)=O)c2)CC1 | inactive |
| Cc1ccc2nc(-c3ccc(NC(=S)NC4CC(C)(C)NC(C)(C)C4)cc3)sc2c1 | inactive |
| CCCCCCCCCCCCn1ccc(=N)cc1 | inactive |
| COc1cccc(/C=C2\SC(=S)N(C(C)C(=O)NC3C=CS(=O)(=O)C3)C2=O)c1 (centres undefined) | inactive |
| CN(C)S(=O)(=O)n1cc(/C=C(\NC(=O)c2ccccc2)C(=O)N2CCCC2)c2ccccc21 | inactive |
| CS(=O)(=O)C1=NN2C(=N)/C(=C\c3ccc(OC(=O)c4ccco4)cc3)C(=O)N=C2S1 | inactive |
| COc1ccc(N2CCN(C(=O)CSc3nnc(-c4cccnc4)n3-c3ccccc3)CC2)cc1 | inactive |
| Cc1nn(C2CCS(=O)(=O)C2)c2nc(C3CC3)cc(C(=O)Nc3ccc(C(N)=O)cc3)c12 (centres undefined) | inactive |
| CCOc1ccc(S(=O)(=O)NCCC(=O)Nc2cccc(C(=O)OC)c2)cc1 | inactive |
| CC1Cc2ccccc2N1C(=O)COC(=O)c1ccc(O)cc1 (centres undefined) | inactive |
| CC1CCC2(CC1)NC(=S)N(c1ccccc1)N2 (centres undefined) | inactive |
| CCOC(=O)C(C)N1C(=O)S/C(=C/c2ccc3c(c2)n(C)c(=O)n3C)C1=O (centres undefined) | inactive |
| O=C(CSc1nnc(Cc2cccs2)n1C1CCCCC1)N1CCN(C(=O)c2ccco2)CC1 | inactive |
| CCOC(=O)c1c(C)oc2c(CC(=O)c3ccccc3)c(Cl)c(O)c(O)c12 | inactive |
| CC(/C=C1\SC(=S)N(C(C(=O)O)c2ccccc2)C1=O)=C\c1ccccc1 (centres undefined) | inactive |
| Cc1cccc2sc(N(CCCN(C)C)C(=O)CCc3ccccc3)nc12 | inactive |
| Cc1ccc(C(=O)NCCCNC(=O)COc2ccc(C)c(C)c2)cn1 | inactive |
| CC(C)C(=O)Nc1nnc(CCN2CCCCC2)s1 | inactive |
| CCN(CC)c1ccc(C(=S)N2CCN(c3ccccc3)CC2)cc1 | inactive |
| CC(=O)Nc1nnc(CCS(=O)(=O)c2ccc(C)c(C)c2)s1 | inactive |
| O=C(/C=C/c1ccc(Cl)cc1)NCc1ccncc1 | inactive |

| SMILES | activity change, negative = inhibition |
| --- | --- |
| COc1ccccc1NC1=C(Cl)C(=O)N(C2CCCCC2)C1=O | inactive |
| Cc1ccc2c(c1)sc(C)[n+]2CCCS(=O)(=O)[O-] | inactive |
| Cc1ccccc1Nc1nnc(SCC2CCCCO2)s1 (centres undefined) | inactive |
| COc1cc(C2NC(=O)C(C#N)=C(S)N2c2ccccc2)ccc1OC(C)C (centres undefined) | inactive |
| C1CCC(C(CC2CCCCN2)C2CCCCC2)CC1 (centres undefined) | inactive |
| COc1ccc(Br)cc1CN(C)C(C)C(=O)Nc1cccc(C(C)=O)c1 (centres undefined) | inactive |
| Cc1cc(CN2C(=O)c3ccccc3C2=O)no1 | inactive |
| COc1cc(/C=N/N=C(N)N)ccc1OCc1ccccc1Cl | inactive |
| O=S(=O)(Nc1ccc(-c2nnc(SCc3ccc(Cl)cc3)o2)cc1)c1ccccc1 | inactive |
| O=C(Nc1ccc(O)c(-c2nc3ccccc3s2)c1)c1cc(=O)c2ccccc2o1 | inactive |
| Cc1c(C(=O)Nc2ccc(S(=O)(=O)N(C)C3CCN(C)CC3)cc2)oc2c(Cl)cccc12 | inactive |
| Cc1ccccc1/C=C/C(=O)NCC(=O)N1CCC(N(C)C2CCCCC2C)CC1 (centres undefined) | inactive |
| CC1Cc2ccccc2N1C(=O)c1ccc(N2CCCC2)c([N+](=O)[O-])c1 (centres undefined) | inactive |
| COc1cccc(-c2nn(C)c3sc(C(=O)N4CCN(c5ccccn5)CC4)cc23)c1 | inactive |
| COc1cccc(/C=C2/Sc3ccc(C(=O)NCCN4CCCC4)cc3NC2=O)c1 | inactive |
| CCOC(=O)c1c(CNCCN(CC)CC)n(C)c2cc(Br)c(OC)cc12 | inactive |
| Oc1ccccc1CNc1cnc2ccccc2c1 | inactive |
| CC(=O)c1cccc(S(=O)(=O)N2CCC(C(=O)O)CC2)c1 | inactive |
| CC(C)c1nc(SCC(=O)Nc2ccc(N3CCOCC3)cc2)c2ccccc2n1 | inactive |
| Cc1cc(Cl)c(S(=O)(=O)N2CCCC2)cc1OCC(N)=O | inactive |
| CCn1c(SCC(=O)Nc2ccc(Br)cc2)nc2sc3c(c2c1=O)CCN(C)C3 | inactive |
| O=C(CNC(=O)c1ccc(Br)o1)NC12CC3CC(CC(C3)C1)C2 | inactive |
| O=C(CSc1n[nH]c(-c2ccccc2Cl)n1)NC1CCCCC1 | inactive |
| Cc1nc(CC(C)C)cc(C(=O)N2CCCC(CNS(=O)(=O)c3cccs3)C2)n1 (centres undefined) | inactive |
| Cc1cc(C)c2sc(C)[n+](CCCS(=O)(=O)[O-])c2c1 | inactive |

| SMILES | activity change, negative = inhibition |
| --- | --- |
| COc1ccc(S(=O)(=O)N2CCN(c3ccccn3)CC2)cc1OC | inactive |
| COc1ccc(/C=C/C(=O)O)cc1S(=O)(=O)NCc1ccco1 | inactive |
| Cc1nn(S(=O)(=O)c2ccc(C(C)C)cc2)c(C)c1S(=O)(=O)N1CCOCC1 | inactive |
| COc1cc(NC(=O)COc2c(C)cc(C)cc2[N+](=O)[O-])c(OC)cc1Cl | inactive |
| O=C(CSC1=NCCN1)Nc1cccc([N+](=O)[O-])c1 | inactive |
| Cc1ccc(S(=O)(=O)Nc2ccc(O)c3cccnc23)cc1 | inactive |
| Cc1cc(OCc2ccc(C(=O)NN=C3CCCC3)cc2)ccc1Cl | inactive |
| CC(C(=O)NC1C=CS(=O)(=O)C1)N1C(=O)/C(=C/c2ccc(Cl)cc2)SC1=S (centres undefined) | inactive |
| O=C(CNC(=O)c1cccc(Br)c1)N/N=C/c1cccs1 | inactive |
| O=C(C/C=N/OCc1ccc(Cl)cc1Cl)c1ccccc1 | inactive |
| Cc1ccc(CN(C(=O)c2ccccc2C)C2CCS(=O)(=O)C2)o1 (centres undefined) | inactive |
| COCC(=O)OCC(=O)Nc1cc(C)c(C)cc1[N+](=O)[O-] | inactive |
| O=C(Nc1ccc(Cl)c(S(=O)(=O)N2CCCCC2)c1)C1=COCCO1 | inactive |
| CCC(C)NC(=O)C1CCN(S(=O)(=O)c2cc([N+](=O)[O-])ccc2Cl)CC1 (centres undefined) | inactive |
| CC(=O)N1CCN(c2ncnc3ccccc23)CC1 | inactive |
| CCN1/C(=C/c2ccc3cc(C)cc(C)c3[n+]2CC)Sc2cc(C)ccc21 | inactive |
| CCc1cccc(NC(=O)C2CCCN(c3ncnc4c3nc3n4CCCCC3)C2)c1 (centres undefined) | inactive |
| COc1cc(-c2nnc(SCC(=O)OC3CCCCC3)o2)cc(OC)c1OC | inactive |
| Cc1cc(NC(=O)CCCn2nc([N+](=O)[O-])c(Cl)c2C)no1 | inactive |
| CSc1c(SCc2ccccc2)cnn(-c2ccccc2)c1=O | inactive |
| CCOC(=O)C1=C(C)NC(=S)N(C(C)=O)C1c1ccc(Cl)cc1 (centres undefined) | inactive |
| CC1CCN(c2nc(CN3CCCCC3)nc3scc(-c4ccccc4)c23)CC1 | inactive |
| CCOc1cc(S(=O)(=O)N2CCC(Cc3ccccc3)CC2)c(OCC)cc1-n1cnnn1 | inactive |
| O=C(Nc1cccc(-c2nc3cccnc3s2)c1)c1cccnc1Cl | inactive |
| CCN1C=CC(=C2C(=O)c3ccccc3C2=O)C=C1 | inactive |
